From US8946273B2, “S-Triazolyl alpha-mercapto acetanilides as inhibitors of HIV reverse transcriptase” (priority 2011, dated 2015)

Each compound was assayed on wild type HIV-1 (assay: microbe, parasite or virus in culture). Details: Human immunodeficiency virus 1, Hela-JC53, read-out: EC50 WT.
Type: cell-based, human immunodeficiency virus type 1 (HIV-1)

Cc1ccc2c(C)ccc(-n3c(Br)nnc3SCC(=O)Nc3ccc(S(N)(=O)=O)cc3Br)c2c1 [compound 81] and CCCc1ccc(-n2c(Br)nnc2SCC(=O)Nc2ccc(S(N)(=O)=O)cc2C)c2ccccc12 [compound 86] cannot be ordered by EC50: < 50 nM for the first, < 50 nM for the second.

CCCc1ccc(-n2c(Br)nnc2SCC(=O)Nc2ccc(S(N)(=O)=O)cc2Cl)c2ccccc12 [compound 85] and CCc1ccc(-n2c(Br)nnc2SCC(=O)Nc2ccc(S(N)(=O)=O)cc2Cl)c2ccccc12 [compound 87] cannot be ordered by EC50: < 50 nM for the first, < 50 nM for the second.

Cc1cc(C2CC2)ccc1-n1c(Br)nnc1SCC(=O)Nc1ccc(S(N)(=O)=O)cc1Cl [compound 88] and NS(=O)(=O)c1ccc(NC(=O)CSc2nnc(Br)n2-c2ccc(C3CCC3)c3ccccc23)c(Cl)c1 [compound 95] cannot be ordered by EC50: < 50 nM for the first, < 50 nM for the second.

NS(=O)(=O)c1ccc(NC(=O)CSc2nnc(Cl)n2-c2ccc(C3CC3)c3ccccc23)c(Cl)c1 [compound 89] and NS(=O)(=O)c1ccc(NC(=O)CSc2nnc(Br)n2-c2c(Cl)cc(C3CCC3)c3ccccc23)c(Cl)c1 [compound 91] cannot be ordered by EC50: < 50 nM for the first, < 50 nM for the second.

Cc1ccc2ccccc2c1-n1c(Br)nnc1SC(C)C(=O)Nc1ccc(S(N)(=O)=O)cc1Cl (stereo not shown) [compound 141] was tested, and the EC50 was < 50 nM.

Same assay, conditions: read-out: EC50 WT; wild-type (WT) HIV-1

CCc1ccc(-n2c(Br)nnc2SCC(=O)Nc2ccc(C(=O)O)cc2Cl)c2ccccc12 [compound 9] and O=C(CSc1nnc(Br)n1-c1ccc(C2CC2)c2ccccc12)Nc1ccc(C(=O)O)cc1Cl [compound 11] cannot be ordered by EC50: < 50 nM for the first, < 50 nM for the second.

O=C(CSc1nnc(Br)n1-c1ccc(C2CC2)c2ccccc12)Nc1ccc(C(=O)O)cc1Cl [compound 12] and NS(=O)(=O)c1ccc(NC(=O)CSc2nnc(Br)n2-c2ccc(C3CC3)c3ccccc23)c(Cl)c1 [compound 39] cannot be ordered by EC50: < 50 nM for the first, < 50 nM for the second.

First: COc1ccc2c(C3CC3)ccc(-n3c(Br)nnc3SCC(=O)Nc3ccc(S(=O)(=O)O)cc3Cl)c2c1 [compound 19]
Second: NS(=O)(=O)c1ccc(NC(=O)CSc2nnc(Br)n2-c2ccc(C3CC3)c3ccccc23)c(Cl)c1 [compound 42]
The EC50 of the first is higher: 50 to 100 nM for the first, < 50 nM for the second. The second is the more potent here.

With Cc1cc(C)c2ccccc2c1-n1c(CF)nnc1SCC(=O)Nc1ccc(S(N)(=O)=O)cc1Cl [compound 82] the EC50 was < 50 nM.

The compounds below were run against T1, wild-type HIV reverse transcriptase (Human immunodeficiency virus type 1 group M subtype B, UniProt P04585) (assay: Activity on wild type reverse transcriptase (Table 1 IC50 WT)). Details: not given.
T1 construct: wild-type and four mutant HIV reverse transcriptases
Type: biochemical
Protocol: Using similar methods as described above, 2-[5-bromo-4-(4-cyclopropylnaphthalen-1-yl)-4H-[1,2,4]triazol-3-ylsulfanyl]-N-(2-methyl-4-sulfamoylphenyeacetamide and 2-[5-bromo-4-(4-ethylnaphthalen-1-yl)-4H-[1,2,4]triazol-3-ylsulfanyl]-N-(2-chloro-4-sulfamoylphenyl)-acetamide were synthesized, as were the N-4-carbamyl analog, 2-[5-bromo-4-(4-ethyl-naphthalen-1-yl)-4H-[1,2,4]triazol-3-ylsulfanyl]-N-(2-chloro-4-carbamoylphenyl)-acetamide and the N-4-carboxyl analog. Each of the compounds was tested against a panel of mutant HIV reverse transcriptases, including 20 of the 22 of the mutants that are found in about 2% or more of the patient samples that are resistant to the most widely used non-nucleoside HIV-RT inhibitor efavirenz ((4S)-6-chloro-4-(cyclopropylethynyl)-1,4-dihydro-4-(trifluoromethyl)-2H-3,1-benzoxazin-2-one). […] In most cases both criteria were met. […] […].
Compounds of the invention were tested against the wild-type and four mutant HIV reverse transcriptases. The results are listed in Table 1 as EC50 (nM) and IC50 (nM). In the Table, A represents <50 nM, B is between 50 and 100 nM, and C is >100 nM. ND is not determined.

Cc1ccc2ccccc2c1-n1c(Br)nnc1SC(C)C(=O)Nc1ccc(S(N)(=O)=O)cc1Cl (stereo not shown) [compound 141] was tested, and the IC50 was < 50 nM.

Same assay, conditions: read-out: IC50 WT RT; wild-type (WT) RT

O=C(CSc1nnc(Br)n1-c1ccc(C2CC2)c2ccccc12)Nc1ccc(C(=O)O)cc1Cl [compound 11] and COc1ccc2c(C3CC3)ccc(-n3c(Br)nnc3SCC(=O)Nc3ccc(S(=O)(=O)O)cc3Cl)c2c1 [compound 19] cannot be ordered by IC50: < 50 nM for the first, < 50 nM for the second.

For O=C(CSc1nnc(Br)n1-c1ccc(C2CC2)c2ccccc12)Nc1ccc(C(=O)O)cc1Cl [compound 12], the IC50 was < 50 nM.

The compounds below were run against mutant HIV reverse transcriptases (Human immunodeficiency virus type 1, UniProt P12497, Y768C, cells depend on it) (assay: not given). Details: not given.
Type: cell-based

CCc1ccc(-n2c(Br)nnc2SCC(=O)Nc2ccc(C(=O)O)cc2Cl)c2ccccc12 [compound 9] and O=C(CSc1nnc(Br)n1-c1ccc(C2CC2)c2ccccc12)Nc1ccc(C(=O)O)cc1Cl [compound 11] cannot be ordered by EC50: < 50 nM for the first, < 50 nM for the second.

O=C(CSc1nnc(Br)n1-c1ccc(C2CC2)c2ccccc12)Nc1ccc(C(=O)O)cc1Cl [compound 12] and NS(=O)(=O)c1ccc(NC(=O)CSc2nnc(Br)n2-c2ccc(C3CC3)c3ccccc23)c(Cl)c1 [compound 39] cannot be ordered by EC50: < 50 nM for the first, < 50 nM for the second.

First: COc1ccc2c(C)ccc(-n3c(Br)nnc3SCC(=O)Nc3ccc(C(=O)O)cc3Cl)c2c1 [compound 18]
Second: COc1ccc2c(C3CC3)ccc(-n3c(Br)nnc3SCC(=O)Nc3ccc(S(=O)(=O)O)cc3Cl)c2c1 [compound 19]
The EC50 of the first is lower: < 50 nM for the first, 50 to 100 nM for the second. The first is the more potent here.

Cc1cc(C2CC2)cc(Cl)c1-n1c(Br)nnc1SCC(=O)Nc1ccc(C(=O)O)cc1Cl [compound 28] and Cc1cc(C2CC2)cc(Cl)c1-n1c(Br)nnc1SCC(=O)Nc1ccc(S(N)(=O)=O)cc1Cl [compound 93] cannot be ordered by EC50: < 50 nM for the first, < 50 nM for the second.

NS(=O)(=O)c1ccc(NC(=O)CSc2nnc(Br)n2-c2ccc(C3CC3)c3ccccc23)c(Cl)c1 [compound 42] and NS(=O)(=O)c1ccc(NC(=O)CSc2nnc(Br)n2-c2ccc(C3CCC3)c3ccccc23)c(Cl)c1 [compound 95] cannot be ordered by EC50: < 50 nM for the first, < 50 nM for the second.

First: CC(Sc1nnc(Br)n1-c1ccc(C2CC2)c2ccccc12)C(=O)Nc1ccc(S(N)(=O)=O)cc1Cl (stereo not shown) [compound 76]
Second: NS(=O)(=O)c1ccc(NC(=O)CSc2nnc(Cl)n2-c2ccc(C3CC3)c3ccccc23)c(Cl)c1 [compound 89]
The EC50 of the first is higher: 50 to 100 nM for the first, < 50 nM for the second.

NS(=O)(=O)c1ccc(NC(=O)CSc2nnc(Br)n2-c2ccc(C3CC3)cc2)c(Cl)c1 [compound 78] and Cc1cc(C2CC2)ccc1-n1c(Br)nnc1SCC(=O)Nc1ccc(S(N)(=O)=O)cc1Cl [compound 88] cannot be ordered by EC50: < 50 nM for the first, < 50 nM for the second.

Cc1ccc2c(C)ccc(-n3c(Br)nnc3SCC(=O)Nc3ccc(S(N)(=O)=O)cc3Br)c2c1 [compound 81] and CCCc1ccc(-n2c(Br)nnc2SCC(=O)Nc2ccc(S(N)(=O)=O)cc2C)c2ccccc12 [compound 86] cannot be ordered by EC50: < 50 nM for the first, < 50 nM for the second.

Cc1cc(C)c2ccccc2c1-n1c(CF)nnc1SCC(=O)Nc1ccc(S(N)(=O)=O)cc1Cl [compound 82] and CCc1ccc(-n2c(Br)nnc2SCC(=O)Nc2ccc(S(N)(=O)=O)cc2Cl)c2ccccc12 [compound 87] cannot be ordered by EC50: < 50 nM for the first, < 50 nM for the second.

CCCc1ccc(-n2c(Br)nnc2SCC(=O)Nc2ccc(S(N)(=O)=O)cc2Cl)c2ccccc12 [compound 85] and Cc1cc(S(N)(=O)=O)ccc1NC(=O)CSc1nnc(Br)n1-c1ccc(C2CCC2)c2ccccc12 [compound 94] cannot be ordered by EC50: < 50 nM for the first, < 50 nM for the second.

NS(=O)(=O)c1ccc(NC(=O)CSc2nnc(Br)n2-c2ccc(C3CC3)cc2OC(F)(F)F)c(Cl)c1 [compound 90] and NS(=O)(=O)c1ccc(NC(=O)CSc2nnc(Br)n2-c2c(Cl)cc(C3CCC3)c3ccccc23)c(Cl)c1 [compound 91] cannot be ordered by EC50: < 50 nM for the first, < 50 nM for the second.

For N#Cc1cccc2c(-n3c(SCC(=O)Nc4ccc(S(N)(=O)=O)cc4Cl)nnc3C(F)F)cccc12 [compound 96], the EC50 was < 50 nM.

What follows are compounds tested against mutant HIV reverse transcriptases (Human immunodeficiency virus type 1, UniProt P12497, Y775L, cells depend on it) (assay: not given). Details: not given.
Type: cell-based

O=C(CSc1nnc(Br)n1-c1ccc(C2CC2)c2ccccc12)Nc1ccc(C(=O)O)cc1Cl [compound 11] and NS(=O)(=O)c1ccc(NC(=O)CSc2nnc(Br)n2-c2ccc(C3CC3)c3ccccc23)c(Cl)c1 [compound 39] cannot be ordered by EC50: < 50 nM for the first, < 50 nM for the second.

O=C(CSc1nnc(Br)n1-c1ccc(C2CC2)c2ccccc12)Nc1ccc(C(=O)O)cc1Cl [compound 12] and NS(=O)(=O)c1ccc(NC(=O)CSc2nnc(Br)n2-c2ccc(C3CC3)c3ccccc23)c(Cl)c1 [compound 42] cannot be ordered by EC50: < 50 nM for the first, < 50 nM for the second.

Compared with COc1ccc2c(C)ccc(-n3c(Br)nnc3SCC(=O)Nc3ccc(C(=O)O)cc3Cl)c2c1 [compound 18], COc1ccc2c(C3CC3)ccc(-n3c(Br)nnc3SCC(=O)Nc3ccc(S(=O)(=O)O)cc3Cl)c2c1 [compound 19] is higher in EC50: < 50 nM for the first, > 100 nM for the second. The first is the more potent here.

Cc1cc(C2CC2)cc(Cl)c1-n1c(Br)nnc1SCC(=O)Nc1ccc(C(=O)O)cc1Cl [compound 28] and Cc1cc(C2CC2)cc(Cl)c1-n1c(Br)nnc1SCC(=O)Nc1ccc(S(N)(=O)=O)cc1Cl [compound 93] cannot be ordered by EC50: < 50 nM for the first, < 50 nM for the second.

First: CC(Sc1nnc(Br)n1-c1ccc(C2CC2)c2ccccc12)C(=O)Nc1ccc(S(N)(=O)=O)cc1Cl (stereo not shown) [compound 76]
Second: NS(=O)(=O)c1ccc(NC(=O)CSc2nnc(Br)n2-c2ccc(C3CCC3)c3ccccc23)c(Cl)c1 [compound 95]
The EC50 of the first is higher: > 100 nM for the first, < 50 nM for the second. The second is the more potent here.

First: NS(=O)(=O)c1ccc(NC(=O)CSc2nnc(Br)n2-c2ccc(C3CC3)cc2)c(Cl)c1 [compound 78]
Second: Cc1cc(C2CC2)ccc1-n1c(Br)nnc1SCC(=O)Nc1ccc(S(N)(=O)=O)cc1Cl [compound 88]
The EC50 of the first is higher: > 100 nM for the first, < 50 nM for the second. The second is the more potent here.

Cc1ccc2c(C)ccc(-n3c(Br)nnc3SCC(=O)Nc3ccc(S(N)(=O)=O)cc3Br)c2c1 [compound 81] and CCCc1ccc(-n2c(Br)nnc2SCC(=O)Nc2ccc(S(N)(=O)=O)cc2C)c2ccccc12 [compound 86] cannot be ordered by EC50: < 50 nM for the first, < 50 nM for the second.

CCCc1ccc(-n2c(Br)nnc2SCC(=O)Nc2ccc(S(N)(=O)=O)cc2Cl)c2ccccc12 [compound 85] and CCc1ccc(-n2c(Br)nnc2SCC(=O)Nc2ccc(S(N)(=O)=O)cc2Cl)c2ccccc12 [compound 87] cannot be ordered by EC50: < 50 nM for the first, < 50 nM for the second.

NS(=O)(=O)c1ccc(NC(=O)CSc2nnc(Cl)n2-c2ccc(C3CC3)c3ccccc23)c(Cl)c1 [compound 89] and Cc1cc(S(N)(=O)=O)ccc1NC(=O)CSc1nnc(Br)n1-c1ccc(C2CCC2)c2ccccc12 [compound 94] cannot be ordered by EC50: < 50 nM for the first, < 50 nM for the second.

Compared with NS(=O)(=O)c1ccc(NC(=O)CSc2nnc(Br)n2-c2ccc(C3CC3)cc2OC(F)(F)F)c(Cl)c1 [compound 90], NS(=O)(=O)c1ccc(NC(=O)CSc2nnc(Br)n2-c2c(Cl)cc(C3CCC3)c3ccccc23)c(Cl)c1 [compound 91] is lower in EC50: 50 to 100 nM for the first, < 50 nM for the second. The second is the more potent here.

N#Cc1cccc2c(-n3c(SCC(=O)Nc4ccc(S(N)(=O)=O)cc4Cl)nnc3C(F)F)cccc12 [compound 96] was tested, and the EC50 was > 100 nM.
